# Reference: article PMC8373983, “Effect of salinity on the zinc(II) binding efficiency of siderophore functional groups and implications for salinity tolerance mechanisms in barley” (Scientific Reports, 2021)
# Several values for one entry are separate records, joined by “and”; a condition that tells them apart may be missing. Identical values can stand only once. Marks after values point to notes of the source that are not given here.
# Columns and labels:
# [1] = Ligand protonation constants, potentiometric titration in NaCl; assay type: physicochemical
# Protocol: (§1) Potentiometric measurements were carried out at T = 298.1 ± 0.1 K in thermostatted cells. The setup consisted of a Metrohm model 888 Titrando apparatus controlled by Metrohm TiAMO 1.2 software equipped with a combined gel electrode (VWR model 662 1759). Estimated precision was 0.2 mV and 0.003 ml for the electromotive force and titrant volume readings, respectively. All the potentiometric titrations were carried out under magnetic stirring and bubbling purified presaturated N2 through the solution to exclude O2 and CO2.
# (§2) A 30 ml solution containing each ligand ([L] = 5 – 10 mM), NaCl and HCl was titrated with standard NaOH solutions. For the zinc(II)/ligand systems, the titrant solutions consisted of different amounts of ligand ([L] = 5 − 10 mM), zinc(II) ([Zn] = 0.5—5 mM) and a suitable amount of HCl and NaCl. All the measurements were carried out with an excess of the ligand, with respect to zinc(II) and at different zinc(II):ligand molar ratios. The selection of ratios investigated was determined by simulating titrations using Hyperquad Simulation and Speciation computer software (HySS)[41]. [Zn] and [L] were negligible compared to the background electrolyte concentrations. […] To account for the influence of zinc(II) hydrolysis in the zinc(II)/ligand systems, zinc(II) titrations were carried out separately at each ionic strength to determine the hydroxide constants so that these constants could be included in the equilibrium model used to refine the titration data. In these titrations, the zinc(II) concentration in the analyte solution was 0.7 mM.
# (§3) Before each experiment, independent titrations of strong acid solutions with standard base were carried out under the same medium and ionic strength conditions as the systems to be investigated, with the aim of determining the electrode potential (E^0’) using GLEE software. In this way, the pH scale used was the […], pH = -log [H]^+, where [H]^+ is the free proton concentration. For each titration, approximately 80 to 100 data points were collected. The equilibrium state during titrations was checked by confirming the time required to reach equilibrium.
# (§4) The software program Hyperquad was used to determine the equilibrium model and to calculate pKa and stability constants from the potentiometric data set[43]. For each set of pKa constants or zinc(II):ligand ratio studied, at least two repeat titrations were performed. The titration curves for each system were treated as a single set when refining the stability constants. This meant that the refinement procedure was run on both curves at the same time to derive a single set of constants. The error reported on the stability constants is the standard deviation given in the Hyperquad output file. Examples of Hyperquad files for the zinc(II)/PYR system are provided on the Zenodo repository (https://doi.org/10.5281/zenodo.4641710).
# (§5) The ionic strength dependence of the stability constants was studied with the modified version of the Extended Debye–Hückel equation[28]. The Monte Carlo method, as described by Hu et al.[43], was used to estimate 95% confidence intervals on the parameters of ionic strength dependence; for each species, predicted stability constants were resampled using an inverse of the cumulative normal distribution function to give sets of simulated data from which the unknown parameters were optimized. An example Excel calculation file for the application of the modified version of the Extended Debye–Hückel equation to the zinc(II)/PYR system (including the calculation of error on parameters of ionic strength dependence) has been uploaded to the Zenodo repository (https://doi.org/10.5281/zenodo.4641710).
# (§6) To quantify the improvement of using a direct vs. indirect method for studying ionic strength dependence, the Davies equation (Eq. 3) was applied to the zinc(II)/PYR data. Speciation calculations for a [Zn] = 10^–6 M and [L] = 10^–5 M system at infinite dilution were conducted with the aid of HySS. […]
# [2] = Zinc(II)-ligand stability constants, potentiometric titration in NaCl; assay type: binding; details: for decrease in the 1:1 zinc(II) stability constant / decrease of the 1:1 zinc(II) stability constant: between 0.00 and 1.00 M NaCl
# Protocol: as §1, §2, §3, §4, §5, §6
# [3] = intrinsic, modified Extended Debye–Hückel fit (direct), T = 298.1 K
# [4] = parameter of ionic strength dependence, NaCl, T = 298.1 K
# [5] = parameter of ionic strength dependence, NaCl
# [6] = Davies equation on 0.05 M NaCl data
# [7] = Davies equation on 0.15 M NaCl data
# [8] = Davies equation on 0.30 M NaCl data
# [9] = Davies equation on 0.70 M NaCl data
# [10] = Davies equation on 1.00 M NaCl data
smiles,measurement,setting,value
"O=C(O)CO [GLY, glycolic acid]","log β, H+ + L = HL","[1]; 0.05 M NaCl, T = 298.1 K",3.55 ± 0.01
same,"log β, H+ + L = HL","[1]; 0.15 M NaCl, T = 298.1 K",3.49 ± 0.01
same,"log β, H+ + L = HL","[1]; 0.30 M NaCl, T = 298.1 K",3.54 ± 0.01
same,"log β, H+ + L = HL","[1]; 0.70 M NaCl, T = 298.1 K",3.44 ± 0.01
same,"log β, H+ + L = HL","[1]; 1.00 M NaCl, T = 298.1 K",3.39 ± 0.01
same,"logβ^0, H+ + L = HL",[1]; [3],3.750^b
same,"C, H+ + L = HL",[1]; [4],0.070^b
same,"log β, Zn2+ + L = ZnL (1:1)","[2]; 0.05 M NaCl, T = 298.1 K",2.83±0.02
same,"log β, Zn2+ + L = ZnL (1:1)","[2]; 0.15 M NaCl, T = 298.1 K",2.10±0.01
same,"log β, Zn2+ + L = ZnL (1:1)","[2]; 0.30 M NaCl, T = 298.1 K",1.93±0.01
same,"log β, Zn2+ + L = ZnL (1:1)","[2]; 0.70 M NaCl, T = 298.1 K",1.25±0.03
same,stability lower than the equivalent 1:1 zinc(II)-PYR structure,[2]; 1:1 zinc(II) complex,approximately 7 logβ units
same,"log β, Zn2+ + L = ZnL (1:1)","[2]; 1.00 M NaCl, T = 298.1 K",0.83±0.04
same,decrease in the 1:1 zinc(II) stability constant,[2],~80%
same,decrease of the 1:1 zinc(II) stability constant,[2],2.19 logβ units
same,"logβ0, Zn2+ + L = ZnL (1:1)",[2]; [3],3.018±0.003
same,"C, Zn2+ + L = ZnL (1:1)",[2]; [5],-1.418±0.006
"Oc1ccccc1O [PYR, pyrocatecholate]","log β, 2H+ + L = H2L","[1]; 0.05 M NaCl, T = 298.1 K",21.36 ± 0.07
same,"log β, H+ + L = HL","[1]; 0.05 M NaCl, T = 298.1 K",12.16 ± 0.03
same,"log β, 2H+ + L = H2L","[1]; 0.15 M NaCl, T = 298.1 K",21.14 ± 0.02
same,"log β, H+ + L = HL","[1]; 0.15 M NaCl, T = 298.1 K",11.97 ± 0.01
same,"log β, 2H+ + L = H2L","[1]; 0.30 M NaCl, T = 298.1 K",21.06 ± 0.02
same,"log β, H+ + L = HL","[1]; 0.30 M NaCl, T = 298.1 K",11.94 ± .01
same,"log β, 2H+ + L = H2L","[1]; 0.70 M NaCl, T = 298.1 K",21.04 ± 0.02
same,"log β, H+ + L = HL","[1]; 0.70 M NaCl, T = 298.1 K",11.96 ± 0.01
same,"log β, 2H+ + L = H2L","[1]; 1.00 M NaCl, T = 298.1 K",20.88 ± 0.02
same,"log β, H+ + L = HL","[1]; 1.00 M NaCl, T = 298.1 K",11.79 ± 0.01
same,"log β0 (indirect), H2L",[1]; [6],21.61±0.07
same,"log β0 (indirect), HL-",[1]; [6],12.50±0.03
same,"log β0 (indirect), H2L",[1]; [7],21.48±0.02
same,"log β0 (indirect), HL-",[1]; [7],12.45±0.01
same,"log β0 (indirect), H2L",[1]; [8],21.45±0.02
same,"log β0 (indirect), HL-",[1]; [8],12.48±0.01
same,"log β0 (indirect), H2L",[1]; [9],21.4±0.02
same,"log β0 (indirect), HL-",[1]; [9],12.46±0.01
same,"log β0 (indirect), H2L",[1]; [10],21.18 ±0.02
same,"log β0 (indirect), HL-",[1]; [10],12.20±0.01
same,"logβ^0, 2H+ + L = H2L",[1]; [3],21.87±0.001 and 21.874 ± 0.001
same,"logβ^0, H+ + L = HL",[1]; [3],12.49 ±0.009 and 12.489 ± 0.009
same,"C, 2H+ + L = H2L",[1]; [4],0.296 ± 0.001
same,"C, H+ + L = HL",[1]; [4],0.183 ± 0.015
same,"log β, Zn2+ + 2L = ZnL2","[2]; 0.05 M NaCl, T = 298.1 K",16.66±0.04
same,"log β, Zn2+ + L = ZnL (1:1)","[2]; 0.05 M NaCl, T = 298.1 K",9.29±0.03
same,"log β, Zn2+ + 2L = ZnL2","[2]; 0.15 M NaCl, T = 298.1 K",15.93±0.02
same,"log β, Zn2+ + L = ZnL (1:1)","[2]; 0.15 M NaCl, T = 298.1 K",8.89±0.02
same,"log β, Zn2+ + 2L = ZnL2","[2]; 0.30 M NaCl, T = 298.1 K",15.32±0.01
same,"log β, Zn2+ + L = ZnL (1:1)","[2]; 0.30 M NaCl, T = 298.1 K",8.57±0.01
same,"log β, Zn2+ + 2L = ZnL2","[2]; 0.70 M NaCl, T = 298.1 K",15.09±0.01
same,"log β, Zn2+ + L = ZnL (1:1)","[2]; 0.70 M NaCl, T = 298.1 K",8.50±0.01
same,"log β, Zn2+ + 2L = ZnL2","[2]; 1.00 M NaCl, T = 298.1 K",14.59±0.01
same,"log β, Zn2+ + L = ZnL (1:1)","[2]; 1.00 M NaCl, T = 298.1 K",8.23±0.01
same,"log β0 (indirect), ZnL",[2]; [6],9.97±0.03 and 9.97
same,"log β0 (indirect), ZnL22-",[2]; [6],16.54±0.04 and 16.54
same,"log β0 (indirect), ZnL",[2]; [7],9.85±0.02 and 9.85
same,"log β0 (indirect), ZnL22-",[2]; [7],15.70±0.02 and 15.70
same,"log β0 (indirect), ZnL",[2]; [8],9.65±0.01 and 9.65
same,"log β0 (indirect), ZnL22-",[2]; [8],15.03±0.01 and 15.03
same,"log β0 (indirect), ZnL",[2]; [9],9.50±0.01 and 9.50
same,"log β0 (indirect), ZnL22-",[2]; [9],14.84±0.01 and 14.84
same,"log β0 (indirect), ZnL",[2]; [10],9.05 ±01 and 9.05
same,"log β0 (indirect), ZnL22-",[2]; [10],14.42±0.01 and 14.42
same,decrease in the 1:1 zinc(II) stability constant,[2],20%
same,decrease of the 1:1 zinc(II) stability constant,[2],1.67 logβ units
same,"logβ0, Zn2+ + 2L = ZnL2",[2]; [3],17.136±0.007 and 17.14±0.007 and 17.14
same,"logβ0, Zn2+ + L = ZnL (1:1)",[2]; [3],9.90±0.001 and 9.90
same,"C, Zn2+ + 2L = ZnL2",[2]; [5],-0.924±0.012
